Earlier results in US20220372042A1, “CONDENSED HETEROCYCLES AS BCL-2 INHIBITORS” (Newave Pharmaceutical Inc., priority 2019, published 2022).
Blank lines part the entries; values can stand above or below the compound they belong to.

Columns and labels:
[1] = test system: DoHH2, Granta-519 xenografts; settings: single agent or in combination with Bendamustine and other agents
[2] = test system: RS4; 11 xenografts; settings: single dose of 100 mg/kg
[3] = test system: RS4; 11 cells
[4] = test system: CLL; settings: average; read-out: average EC50 apoptosis in CLL
[5] = test system: CLL who have 17p deletion; settings: CLL with 17p deletion
[6] = test system: circulating platelets; settings: patients, clinical trial
[7] = test system: H345 xenograft; settings: 100 mg/kg/day, H345 xenograft model
[8] = test system: SCLC H146 cell line; settings: read-out: IC50 against SCLC H146 cell line
[9] = biological target: T1, Bcl-w (Homo sapiens, UniProt Q92843)
T1 sequence (Q92843 1-193): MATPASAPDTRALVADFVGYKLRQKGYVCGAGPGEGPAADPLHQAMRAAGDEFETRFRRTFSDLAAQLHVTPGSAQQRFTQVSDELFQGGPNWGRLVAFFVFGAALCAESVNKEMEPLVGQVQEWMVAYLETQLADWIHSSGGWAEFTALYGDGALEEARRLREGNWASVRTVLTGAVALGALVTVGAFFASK

[10] = test system: xenograft models of small-cell lung cancer and acute lymphoblastic leukemia; settings: single agent
[11] = in vivo
[12] = test system: established tumors; settings: mouse, in vivo

EC50 [3]: 8 nM
EC50 [4]: 3 nM
SMILES: CC1(C)CCC(CN2CCN(c3ccc(C(=O)NS(=O)(=O)c4ccc(NCC5CCOCC5)c([N+](=O)[O-])c4)c(Oc4cnc5[nH]ccc5c4)c3)CC2)=C(c2ccc(Cl)cc2)C1 [ABT-199]
xenograft growth [1]: inhibits xenograft growth
maximal tumor growth inhibition [2]: 95%
tumor growth delay [2]: 152%
clinical efficacy [5]: highly efficacious

number of circulating platelets [6]: rapid, concentration-dependent decrease
IC50 [8]: 110 nM
Ki [9]: ≤ 1 nM
SMILES: CC1(C)CCC(c2ccc(Cl)cc2)=C(CN2CCN(c3ccc(C(=O)NS(=O)(=O)c4ccc(N[C@H](CCN5CCOCC5)CSc5ccccc5)c(S(=O)(=O)C(F)(F)F)c4)cc3)CC2)C1 [ABT-263]
TGI [7]: 80%
treated tumors indicating at least a 50% reduction in tumor volume [7]: 20%
tumor response after oral administration alone [10]: complete tumor regressions

oral bioavailability [11]: not orally bioavailable
aqueous solubility: low aqueous solubility
SMILES: CN(C)CC[C@H](CSc1ccccc1)Nc1ccc(S(=O)(=O)NC(=O)c2ccc(N3CCN(Cc4ccccc4-c4ccc(Cl)cc4)CC3)cc2)cc1[N+](=O)[O-] [ABT-737]
efficacy in animal models [12]: improves survival, causes regression of established tumors, and produces cures in a high percentage of the mice
